In patent publication US12161722B2, “Bifunctional heterocyclic compound having BTK degradation function via ubiquitin proteasome pathway, and use thereof” (KOREA RESEARCH INSTITUTE OF CHEMICAL TECHNOLOGY, priority 2021, dated 2024):

Assays:
WT BTK protein = biological target: T1, WT BTK protein (Homo sapiens, UniProt Q06187); test: BTK protein degradation assay (Western blotting), WT BTK; assay type: cell-based; conditions: concentration range accounting for 50% degradation of WT BTK protein, TMD-8 or RAMOS cells, 24 hours
T1 construct: measured for intracellular BTK protein levels by Western blotting; endogenous in cells; host or cells: TMD-8 or RAMOS cells
T1 sequence (Q06187 whole entry): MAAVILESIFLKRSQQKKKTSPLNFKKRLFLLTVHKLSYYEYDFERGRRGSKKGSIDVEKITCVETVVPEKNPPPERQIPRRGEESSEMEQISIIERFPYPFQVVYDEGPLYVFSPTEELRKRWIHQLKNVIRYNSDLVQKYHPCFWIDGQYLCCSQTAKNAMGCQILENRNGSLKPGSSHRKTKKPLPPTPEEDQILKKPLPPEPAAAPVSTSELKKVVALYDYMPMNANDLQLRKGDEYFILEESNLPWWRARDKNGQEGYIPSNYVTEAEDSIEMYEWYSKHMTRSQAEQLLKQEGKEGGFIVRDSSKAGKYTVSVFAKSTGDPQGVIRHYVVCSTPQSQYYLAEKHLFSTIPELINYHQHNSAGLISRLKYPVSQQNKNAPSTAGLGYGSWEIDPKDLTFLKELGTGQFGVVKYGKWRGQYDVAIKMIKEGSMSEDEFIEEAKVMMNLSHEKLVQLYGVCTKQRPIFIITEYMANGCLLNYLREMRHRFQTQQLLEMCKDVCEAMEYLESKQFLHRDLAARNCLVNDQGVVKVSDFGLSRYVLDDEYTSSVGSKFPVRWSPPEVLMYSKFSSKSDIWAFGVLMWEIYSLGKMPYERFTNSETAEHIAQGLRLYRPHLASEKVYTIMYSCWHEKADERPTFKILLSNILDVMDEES
Procedure, shortened: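 TMD-8 cells (1×10^6 cells/mL) treated 24 h with compound serial dilutions, then lysed in RIPA. Equal protein loads analysed by Western blot for BTK with GAPDH/β-actin as loading controls; activity binned by concentration giving 50% WT BTK degradation.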

C481S BTK protein = biological target: T2, C481S BTK protein (Homo sapiens, UniProt Q06187, C481S); test: BTK protein degradation assay (Western blotting), C481S BTK; assay type: cell-based; conditions: concentration range accounting for 50% degradation of C481S BTK protein, 293T BTK MUT (C481S) cells
T2 construct: expressed in transfected cells; host or cells: 293T BTK MUT (C481S) cells
T2 sequence (Q06187 whole entry C481S): as the sequence (Q06187 whole entry) above, with C481S counted along it
Method: TMD-8, RAMOS, or 293T BTK MUT (C481S) cells were treated with the synthesized compounds and measured for intracellular BTK protein levels by Western blotting. The protocol of the experiment using TMD-8 cells is as follows.
The 12-well plates were treated as follows. A 10 mM stock was 1/10 diluted in series with DMSO ([…]) to form final concentrations of 10, 1, 0.1, 0.01, 0.001, and 0.0001 mM. The compounds with such concentrations were applied to cells, followed by harvesting the cells 24 hours later. For a negative control, a 1/10 dilution of DMSO in the medium (3 mL DMSO+27 mL medium) was used.
The 1-mL cell culture in each well was passed many times through a pipette and then transferred into a 1.5-mL microtube before centrifugation (500 g, 5 min, 4° C.). The supernatant was discarded and the cell pellet was washed with PBS. After centrifugation (500 g, 5 min, 4° C.) again, the supernatant was discarded and the cell pellet was taken.
A lysis buffer was prepared as follows. RIPA buffer (Biosesang, RC2038-050-00)+0.5 mM PMSF (SIGMA, P7626)+1×Protease/Phosphatase Inhibitor (Cell signaling, 5872S) was added in an amount […] per well and left for 30 minutes on ice (vortexing at 0 and 30 minutes) before sonication (5 cycles of pulse for 10 seconds and rest for 30 seconds, 70% amplification). The supernatant obtained by centrifugation (15000 g, 15 min, 4° C.) was transferred into a new microtube. Cells in each well of 96-well plates were 1/2 diluted with the RIPA buffer and incubated at 37° C. for 30 minutes with […] of a 50:1 mixture of BCA reagents A and B in BCA Protein Assay Kit (iNtRON, 21071). After being cooled for 10 minutes, the 96-well plates were measured for absorbance at 562 nm on the BioTek, SYNERGY H1 microplate reader. Samples were prepared by protein quantification based on the absorbance measurements and then boiled at 70° C. for 10 minutes. The sample buffer used in the case was prepared by mixing a NuPAGE or a Bolt 4× sample buffer (Invitrogen) and its 10× sample reducing agent depending on the gel to be used, and protein dilution was made in a RIPI buffer.
The samples were loaded in the same amount into a NuPAGE or Bolt Bis-tris 4-12% gradient gel and allowed to run therein (200 V, 35 minutes). The separated proteins were transferred onto a […] NC membrane, using Trans-blot Turbo (BIO-RAD) (1.3 A constant, 25V limit, 15 minutes). The membrane was blocked at room temperature for 1 hour with skim milk or Intercept Blocking Buffer (LI-COR, 927-60001):0.1% TBST=1:1. The membrane was incubated with Anti BTK Rabbit (1:1,000 in 5% skim milk/0.2% TBST, size: 77 kDa, Cell signaling Technology) at 4° C. overnight O/N or at room temperature for 2 hours and with Anti GAPDH Rabbit (1:10,000 in 5% BSA/0.2% TBST, size: 36 kDa, GENETEX) and Anti β-actin mouse (1:10,000 in 5% BSA/0.2% TBST, RT, size: 43 kDa, GENETEX) at room temperature for 1 or 3 hours. Then, the membrane was washed three times with 0.5% TBST for 5 minutes each time before incubation with the second antibody Anti-Rabbit IgG (1:5,000 in 5% Skim milk/TBST, CST), IRDye® 800CW Goat anti-Rabbit IgG Secondary Antibody (1:10,000 in 5% skim/TBST, RT 45 min), or IRDye® 680RD Goat anti-Mouse IgG Secondary Antibody (1:10,000 in 5% skim/TBST, RT 45 min) for 45 minutes at room temperature in a rocker. The membrane was washed five times with 0.5% TBST for 5 minutes in each time, followed by detection with LI-COR, Odyssey. In this regard, the detection proceeded, as it was, for house-keeping genes while using SuperSignal West Pico PLUS Chemiluminescent Substrate or SuperSignal West femto Maximum Sensitivity Substrate for BTK detection.
According to the concentration ranges of compounds accounting for 50% degradation of WT BTK protein and C481S BTK protein, the activities are expressed as +++(0.0001-0.01 μM), ++(0.01-1 μM), +(1-10 μM), −(>10 μM), and NT (not tested). […]

Structure (SMILES)	DC50 (WT BTK protein)	DC50 (C481S BTK protein)
Cc1cccc(C)c1Nc1nn(C)c2nc(Nc3ccc4c(c3)CN(C(=O)COCCOCCOCCOCCNc3cccc5c3C(=O)N(C3CCC(=O)NC3=O)C5=O)CC4)ncc12 (stereo not drawn) [Compound 13]	0.1 to 10 nM	1000 to 10000 nM
Cc1cccc(C)c1Nc1nn(C)c2nc(Nc3ccc4c(c3)CN(C(=O)[C@H]3CCCN3C(=O)CN3CCN(c5ccc6c(c5)C(=O)N(C5CCC(=O)NC5=O)C6=O)CC3)CC4)ncc12 (stereo partly drawn) [Compound 32, 5-(4-(2-((R)-2-(7-((3-((2,6-Dimethylphenyl)amino)-1-methyl-1H-pyrazolo[3,4-d]pyrimidin-6-yl)amino)-1,2,3,4-tetrahydroisoquinoline-2-carbonyl)pyrrolidin-1-yl)-2-oxoethyl)piperazin-1-yl)-2-(2,6-dioxopiperidin-3-yl)isoindoline-1,3-dione]	10 to 1000 nM	1000 to 10000 nM
Cc1cccc(C)c1Nc1nn(C)c2nc(Nc3ccc4c(c3)CN(C(=O)CCOCCOCCOCCOCCNC(=O)CN3CCN(c5ccc6c(c5)C(=O)N(C5CCC(=O)NC5=O)C6=O)CC3)CC4)ncc12 (stereo not drawn) [Compound 18]	0.1 to 10 nM	> 10000 nM
Cc1cccc(C)c1Nc1nn(C)c2nc(Nc3ccc4c(c3)CN(CC3CCN(c5ccc6c(=O)n(C7CCC(=O)NC7=O)nnc6c5)CC3)CC4)ncc12 (stereo not drawn) [Compound 53, 3-(7-(4-((7-((3-((2,6-Dimethylphenyl)amino)-1-methyl-1H-pyrazolo[3,4-d]pyrimidin-6-yl)amino)-3,4-dihydroisoquinolin-2 (1H)-yl)methyl)piperidin-1-yl)-4-oxobenzo[d][1,2,3]triazin-3 (4H)-yl)piperidin-2,6-one]	0.1 to 10 nM	10 to 1000 nM
Cc1cccc(C)c1Nc1nn(C)c2nc(Nc3ccc4c(c3)CN(CC3CCN(C(=O)C5CCN(c6cccc7nnn(C8CCC(=O)NC8=O)c(=O)c67)CC5)CC3)CC4)ncc12 (stereo not drawn) [Compound 62, 3-(5-(4-(4-((7-((3-((2,6-Dimethylphenyl)amino)-1-methyl-1H-pyrazolo[3,4-d]pyrimidin-6-yl)amino)-3,4-dihydroisoquinolin-2 (1H)-yl)methyl)piperidine-1-carbonyl)piperidin-1-yl)-4-oxobenzo[d][1,2,3]triazin-3 (4H)-yl)piperidin-2,6-one]	0.1 to 10 nM	10 to 1000 nM
Cc1cccc(C)c1Nc1nn(C)c2nc(Nc3ccc4c(c3)CN(C(=O)COCCOCCOCCOCCNC(=O)CNc3cccc5c3C(=O)N(C3CCC(=O)NC3=O)C5=O)CC4)ncc12 (stereo not drawn) [Compound 10, N-(14-(7-((3-((2,6-Dimethylphenyl)amino)-1-methyl-1H-pyrazolo[3,4-d]pyrimidin-6-yl)amino)-3,4-dihydroisoquinolin-2 (1H)-yl)-14-oxo-3,6,9,12-tetraoxatetradecyl)-2-((2-(2,6-dioxopiperidin-3-yl)-1,3-dioxoisoindolin-4-yl)amino)acetamide]	10 to 1000 nM	> 10000 nM
Cc1cccc(C)c1Nc1nn(C)c2nc(Nc3ccc4c(c3)CN(Cc3cn(CCOCCOCCNC(=O)CNc5cccc6c5C(=O)N(C5CCC(=O)NC5=O)C6=O)nn3)CC4)ncc12 (stereo not drawn) [Compound 11]	0.1 to 10 nM	> 10000 nM
Cc1cccc(C)c1Nc1nn(C)c2nc(Nc3ccc4c(c3)CN(C(=O)C3CCN(C(=O)COc5ccc6nnn(C7CCC(=O)NC7=O)c(=O)c6c5)CC3)CC4)ncc12 (stereo not drawn) [Compound 55, 3-(6-(2-(4-(7-((3-((2,6-Dimethylphenyl)amino)-1-methyl-1H-pyrazolo[3,4-d]pyrimidin-6-yl)amino)-1,2,3,4-tetrahydroisoquinoline-2-carbonyl)piperidin-1-yl)-2-oxoethoxy)-4-oxobenzo[d][1,2,3]triazin-3 (4H)-yl)piperidin-2,6-one]	0.1 to 10 nM	10 to 1000 nM
Cc1cccc(C)c1Nc1nn(C)c2nc(Nc3ccc4c(c3)CN(C(=O)CCCCCCCCCCCNc3cccc5c3C(=O)N(C3CCC(=O)NC3=O)C5=O)CC4)ncc12 (stereo not drawn) [Compound 7, 4-((12-(7-((3-((2,6-Dimethylphenyl)amino)-1-methyl-1H-pyrazolo[3,4-d]pyrimidin-6-yl)amino)-3,4-dihydroisoquinolin-2 (1H)-yl)-12-oxododecyl)amino)-2-(2,6-dioxopiperidin-3-yl)isoindoline-1,3-dione]	0.1 to 10 nM	> 10000 nM
Cc1cccc(C)c1Nc1nn(C)c2nc(Nc3ccc4c(c3)CN(CC3CCN(C(=O)COc5ccc6c(c5)C(=O)N(C5CCC(=O)NC5=O)C6=O)CC3)CC4)ncc12 (stereo not drawn) [Compound 30, 5-(2-(4-((7-((3-((2,6-Dimethylphenyl)amino)-1-methyl-1H-pyrazolo[3,4-d]pyrimidin-6-yl)amino)-3,4-dihydroisoquinolin-2 (1H)-yl)methyl)piperidin-1-yl)-2-oxoethoxy)-2-(2,6-dioxopiperidin-3-yl)isoindoline-1,3-dione]	0.1 to 10 nM	10 to 1000 nM
Cc1cccc(C)c1Nc1nn(C)c2nc(Nc3ccc4c(c3)CN(CC3CCN(c5ccc6c(c5)C(=O)N(C5CCC(=O)NC5=O)C6=O)CC3)CC4)ncc12 (stereo not drawn) [Compound 29, 5-(4-((7-((3-((2,6-Dimethylphenyl)amino)-1-methyl-1H-pyrazolo[3,4-d]pyrimidin-6-yl)amino)-3,4-dihydroisoquinolin-2 (1H)-yl)methyl)piperidin-1-yl)-2-(2,6-dioxopiperidin-3-yl)isoindoline-1,3-dione]	0.1 to 10 nM	10 to 1000 nM
Cc1cccc(C)c1Nc1nn(C)c2nc(Nc3ccc4c(c3)CN(CC3CCN(Cc5ccc6nnn(C7CCC(=O)NC7=O)c(=O)c6c5)CC3)CC4)ncc12 (stereo not drawn) [Compound 46]	10 to 1000 nM	10 to 1000 nM
Cc1cccc(C)c1Nc1nn(C)c2nc(Nc3ccc4c(c3)CN(C(=O)COCCOCCOCCOCCNC(=O)C3CCN(c5cccc6c5C(=O)N(C5CCC(=O)NC5=O)C6=O)CC3)CC4)ncc12 (stereo not drawn) [Compound 5, N-(14-(7-((3-((2,6-Dimethylphenyl)amino)-1-methyl-1H-pyrazolo[3,4-d]pyrimidin-6-yl)amino)-3,4-dihydroisoquinolin-2 (1H)-yl)-14-oxo-3,6,9,12-tetraoxatetradecyl)-1-(2-(2,6-dioxopiperidin-3-yl)-1,3-dioxoisoindolin-4-yl)piperidine-4-carboxamide]	10 to 1000 nM	10 to 1000 nM
Cc1cccc(C)c1Nc1nn(C)c2nc(Nc3ccc4c(c3)CN(C(=O)C3CCN(c5ccc6c(c5)C(=O)N(C5CCC(=O)NC5=O)C6=O)CC3)CC4)ncc12 (stereo not drawn) [Compound 56, 5-(4-(7-((3-((2,6-Dimethylphenyl)amino)-1-methyl-1H-pyrazolo[3,4-d]pyrimidin-6-yl)amino)-1,2,3,4-tetrahydroisoquinoline-2-carbonyl)piperidin-1-yl)-2-(2,6-dioxopiperidin-3-yl)isoindoline-1,3-dione]	10 to 1000 nM	10 to 1000 nM
Cc1cccc(C)c1Nc1nn(C)c2nc(Nc3ccc4c(c3)CN(C(=O)C3CCN(c5cccc6nnn(C7CCC(=O)NC7=O)c(=O)c56)CC3)CC4)ncc12 (stereo not drawn) [Compound 59]	0.1 to 10 nM	1000 to 10000 nM
